Key:
BT-549 [1] = assay: normalised response (% of control), CellTiter-Glo; higher = more viable cells (100 = DMSO, 0 = benzethonium chloride kill control); settings: incubation time: 72 h
Procedure, shortened: (§1)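 Each value is the plate-normalised signal at one concentration of the series. Breast cancer cell lines (20 µl suspension) were incubated 72 h in 384-well plates with compound at 5 concentrations in 10-fold steps over a compound-specific 10,000-fold range. CellTox Green and then CellTiter-Glo were read, and each plate was scaled to 0.1 % DMSO (100) and a positive kill control (0).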

CAL-120 [2] = assay: as above; settings: incubation time: 72 h
Procedure, shortened: as §1

CAL-51 [3] = assay: as above; settings: incubation time: 72 h
Procedure, shortened: as §1

HCC1143 [4] = assay: as above; settings: incubation time: 72 h
Procedure, shortened: as §1

HCC1599 [5] = assay: as above; settings: incubation time: 72 h
Procedure, shortened: as §1

MCF-10A [6] = assay: as above; settings: incubation time: 72 h
Procedure, shortened: as §1

MFM-223 = assay: as above; settings: incubation time: 72 h
Procedure, shortened: as §1

SK-BR-3 [7] = assay: as above; settings: incubation time: 72 h
Procedure, shortened: as §1

CAL-148 [8] = settings: 72 h
Procedure, shortened: (§2)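 The reported EC50 was fitted from percent-inhibition dose-response curves and censored at the highest concentration. Breast cancer cell lines (20 µl suspension) were added to 384-well plates containing compound in 5 µl medium and incubated 72 h, and viability was read with 2.5 µl CellTiter-Blue over 2 h at 37 °C at 560/590 nm. Each plate was normalised to vehicle and a positive kill control and checked by Z'-factor, and rows with zero drug sensitivity score were dropped.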

HCC1143 [9] = settings: 72 h
Procedure, shortened: as §2

HCC1599 [10] = settings: 72 h
Procedure, shortened: as §2

BT-549 [11] = settings: 72 h
Procedure, shortened: (§3)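 Breast cancer cell lines (20 µl suspension) were seeded into 384-well plates holding compound at 5 concentrations in 10-fold steps over a compound-specific 10,000-fold range, then incubated 72 h. Cell death was read first by CellTox Green fluorescence (485/520 nm), then viability by CellTiter-Glo luminescence after 10 min at room temperature. Each plate was normalised to 0.1 % DMSO and a positive kill control. EC50 was fitted from the dose-response curves and censored at the top concentration.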

BT-474 = settings: 72 h
Procedure, shortened: as §3

CAL-120 [12] = settings: 72 h
Procedure, shortened: as §3

CAL-148 [13] = settings: 72 h; remark: listed apart in the source
Procedure, shortened: as §3

CAL-51 [14] = settings: 72 h
Procedure, shortened: as §3

DU-4475 = settings: 72 h
Procedure, shortened: as §3

HDQ-P1 = settings: 72 h
Procedure, shortened: as §3

Hs578T = settings: 72 h
Procedure, shortened: as §3

MCF-10A [15] = settings: 72 h
Procedure, shortened: as §3

MDA-MB-231 [16] = settings: 72 h
Procedure, shortened: as §3

MDA-MB-436 = settings: 72 h
Procedure, shortened: as §3

SK-BR-3 [17] = settings: 72 h
Procedure, shortened: as §3

CAL-51 [18] = settings: 72 h; remark: listed apart in the source
Protocol: (§4)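 Drug sensitivity and resistance testing (DSRT) of breast cancer cell lines in 384-well plates, 5 concentrations in 10-fold dilutions over a compound-specific 10,000-fold range. After 72 h, cytotoxicity was read by CellTox Green fluorescence and viability by CellTiter-Glo luminescence (multiplexed), normalised to DMSO and benzethonium chloride controls. EC50 is the inflection point of the fitted dose-response curve (bottom asymptote free, so it can be relative for partial curves) and is censored at the highest tested concentration. Rows with DSS 0 (no meaningful response) were excluded.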

MDA-MB-231 [19] = settings: 72 h; remark: listed apart in the source
Protocol: as §4

MDA-MB-468 = settings: 72 h
Protocol: as §4

CAL-85-1 = settings: 72 h
Procedure, shortened: as §3

HCC1599 [20] = settings: 72 h; remark: listed apart in the source
Procedure, shortened: as §3

SMILES | normalised response (BT-549 [1]) [%] | normalised response (CAL-120 [2]) [%] | normalised response (CAL-51 [3]) [%] | normalised response (HCC1143 [4]) [%] | normalised response (HCC1599 [5]) [%] | normalised response (MCF-10A [6]) [%] | normalised response (MFM-223) [%] | normalised response (SK-BR-3 [7]) [%] | further results
COc1cc(OC2CCN(C)CC2)ccc1Nc1ncc2c(n1)n(C1CCCC1)c(=O)n2C [AZ 3146] (10000 nM) | 64.3 | 81 | 48.9 | 70.4 | 37.8 | 47.8 | 72.1 | 52.4 | 
Nc1cc(C(F)(F)F)c(-c2cc(N3CCOCC3)nc(N3CCOCC3)n2)cn1 [BKM-120] |  |  |  |  |  |  |  |  | EC50, CellTiter-Blue viability (CAL-148 [8]): 1.71 µM; EC50, CellTiter-Blue viability (HCC1143 [9]): 2.35 µM; EC50, CellTiter-Blue viability (HCC1599 [10]): 0.517 µM
CO[C@H]1C[C@@H]2CC[C@@H](C)[C@@](O)(O2)C(=O)C(=O)N2CCCC[C@H]2C(=O)O[C@H]([C@H](C)C[C@@H]2CC[C@@H](OP(C)(C)=O)[C@H](OC)C2)CC(=O)[C@H](C)/C=C(\C)[C@@H](O)[C@@H](OC)C(=O)[C@H](C)C[C@H](C)/C=C/C=C/C=C/1C [Ridaforolimus] (100 nM) | 54.8 | 64.8 | 62 | 67.1 | 108 | 85.1 | 68.3 | 56.9 | 
Cc1cc(Nc2cc(CN3CCOCC3)c3nc(C)c(Cc4ccc(Cl)cc4F)n3n2)n[nH]1 |  |  |  |  |  |  |  |  | EC50, CellTiter-Blue viability (HCC1143 [9]): 0.121 µM
C=C1C[C@@H]2[C@H](CC[C@]3(C)C(=O)CC[C@@H]23)[C@@]2(C)C=CC(=O)C=C12 [Exemestane] (10000 nM) | 94.5 | 101 | 81.7 | 94.1 | 107 | 107 | 94.5 | 89.3 | 
N#Cc1ccc(COC[C@H]2O[C@@H](n3c(NCc4ccc(Cl)c(Cl)c4)nc4c(N)ncnc43)[C@H](O)[C@@H]2O)cc1 (10000 nM) | 61.8 | 83.7 | 88 | 66.2 | 65.7 | 59.2 | 74.3 | 47.4 | 
COc1cc2ncnc(Nc3ccc(F)c(Cl)c3)c2cc1OCCCN1CCOCC1 [Gefitinib] (10000 nM) | 73.6 | 83.6 | 100 | 77 | 81.9 | 26.1 | 75 | 27.1 | 
O=P1(N(CCCl)CCCl)NCCCO1 (stereo unspecified) [Cyclophosphamide] (40000 nM) | 100 | 94.4 | 131 | 105 | 92.9 | 109 | 108 | 108 | 
CCc1c2c(nc3ccc(OC(=O)N4CCC(N5CCCCC5)CC4)cc13)-c1cc3c(c(=O)n1C2)COC(=O)[C@]3(O)CC [Irinotecan] (10000 nM) | 49.1 | 70 | 34.8 | 60.1 | 29.8 | 68.2 | 96.5 | 47.4 | 
S=P(N1CC1)(N1CC1)N1CC1 [Thio-TEPA] |  |  |  |  |  |  |  |  | EC50, CellTiter-Glo (BT-549 [11]): 8.21 µM
CC(C)C[C@@H](C(=O)N[C@H](C(=O)OC1CCCC1)c1ccccc1)[C@H](O)C(=O)NO [Tosedostat] (10000 nM) | 42.7 | 47.9 | 71.9 | 55.1 | 89 | 76.5 | 55.9 | 74 | 
NC(=O)c1ccc(I)c([N+](=O)[O-])c1 [Iniparib] (10000 nM) | 96.5 | 98.2 | 84.7 | 92.1 | 88 | 76.3 | 80 | 71.1 | 
O=C(Nc1cccnc1)N1CCC(Cc2cccc(Oc3ccc(C(F)(F)F)cn3)c2)CC1 [PF-3845] (10000 nM) | 71.7 | 86 | 44.6 | 86.1 | 46.2 | 93.4 | 75.7 | 57.1 | 
CCn1c(-c2nonc2N)nc2cnc(Oc3cccc(NC(=O)c4ccc(OCCN5CCOCC5)cc4)c3)cc21 |  |  |  |  |  |  |  |  | EC50, CellTiter-Glo (BT-474): 0.206 µM; EC50, CellTiter-Glo (BT-549 [11]): 4.29 µM; EC50, CellTiter-Glo (CAL-120 [12]): 0.512 µM; EC50, CellTiter-Glo (CAL-148 [13]): 1.24 µM; EC50, CellTiter-Glo (CAL-51 [14]): 4.64 µM; EC50, CellTiter-Glo (DU-4475): > 10 µM; EC50, CellTiter-Glo (HDQ-P1): 2.17 µM; EC50, CellTiter-Glo (Hs578T): 2.05 µM; EC50, CellTiter-Glo (MCF-10A [15]): 0.0378 µM; EC50, CellTiter-Glo (MDA-MB-231 [16]): 1.5 µM; EC50, CellTiter-Glo (MDA-MB-436): 3.67 µM; EC50, CellTiter-Glo (SK-BR-3 [17]): 1.88 µM; EC50, CellTox Green (CAL-51 [18]): 0.0481 µM; EC50, CellTox Green (MDA-MB-231 [19]): 2.95 µM; EC50, CellTox Green (MDA-MB-468): > 10 µM
O=C(Nc1cccnc1)N1CCC(Cc2cccc(Oc3ccc(C(F)(F)F)cn3)c2)CC1 [PF-3845] |  |  |  |  |  |  |  |  | EC50, CellTiter-Glo (BT-549 [11]): 3.07 µM; EC50, CellTiter-Glo (CAL-120 [12]): > 10 µM; EC50, CellTiter-Glo (CAL-51 [14]): 4.2 µM; EC50, CellTiter-Glo (CAL-85-1): > 10 µM; EC50, CellTiter-Glo (HCC1599 [20]): 9.42 µM
CN(C)CCOc1ccc(/C(=C(/CCCl)c2ccccc2)c2ccccc2)cc1 [Toremifene] (10000 nM) | 81.8 | 90.7 | 98.3 | 96.8 | 77.9 | 63.5 | 48.4 | 67.1 | 
CNC(=O)c1cc(Oc2ccc(NC(=O)Nc3ccc(Cl)c(C(F)(F)F)c3)c(F)c2)ccn1 [Regorafenib] (10000 nM) | 43.7 | 49.8 | 73.8 | 77.8 | 36.5 | 46.2 | 35.9 | 51.7 | 

Reference: the supplement of paper PMC4862054
